Columns and labels:
[1] = tested on: glycogen synthase kinase-3 (GSK-3); settings: background statement, no data; cited from earlier work
APP/PS1 transgenic mice = test: Morris water maze probe test in APP/PS1 transgenic mice; type: in vivo; settings: for Adjusted average distance of approaching to platform / Swimming path, I quadrant occupancy of platform / first time of crossing platform / time spent of IV quadrant / time, I quadrant occupancy of platform / times of crossing platform: probe test on 5th day, n = 10
Method: 1. […] 2. APP/PS1 transgenic mice (Model Animal Research Center of Nanjing University, weights of mice are from 30 g to 40 g, male, totally 60 mice). Sixty mice are randomized to six groups (group 2 to group 7) with ten mice for each group. […] group: 0.15 mg/mL […] solution is obtained by grinding one tablet (5 mg) of […] into powder, followed by dissolved in 0.5% CMC (carboxymethylcellulose). Morris water maze (Experimental video analysis system of Morris water maze, JLBehv-MWMG, Shanghai Jiliang Technology Co., Ltd) Group 1 and group 2 are daily administrated by normal saline and group 3 to group 7 are daily administrated by drug solutions prepared above, with the dosage of 1 mL/100 g/day for continuous one month. From the fifth week, mice are training in Morris water maze, 30 minutes after drug administration. The training session lasts for 4 days. The probe test performed on the 5th day. The Morris water maze statistics software is used to automatically record and analyze the swimming trace in the quadrant, time spent and path in target or opposite quadrant occupancy and times of crossing platform. The data is indicated as average±standard deviation (x±SD). The analysis of variance for a single factor is used for data difference statistics. Difference between groups is determined by P<0.05.

[2] = Hygroscopicity by dynamic vapor sorption (DVS) analysis; type: physicochemical; settings: for hygroscopicity: DVS
Method: Dynamic Vapor Sorption (DVS) curves of the polymorphs are measured on SMS DVS Intrinsic at 0-95% RH and 25° C.
The compound stably exists as a nonahydrate by dynamic vapor sorption analysis. It forms monohydrate under the scope of relative humidity (RH) from 20% to 50%. It forms dihydrate under the scope of relative humidity (RH) from 70% to 100%. It could forms polyhydrate with further increased relative humidity (RH).
Under the scope of relative humidity (RH) from 5% to 95%, the hygroscopicity of the intermediate A of pyrroloquinoline quinine lithium salt and the crystalline form B of pyrroloquinoline quinine lithium salt from example 1 is measured by dynamic vapor sorption analysis. […] The crystalline solid is not good. The hygroscopicity of the crystalline form B of pyrroloquinoline quinine lithium salt is 8.4% and 13.9% under the relative humidity (RH) of 65% and 80%, respectively. […] The crystalline solid is not good.

[3] = 0.375 mg/kg daily for one month

O=C([O-])c1cc(C(=O)[O-])c2c(n1)C(=O)C(=O)c1cc(C(=O)[O-])[nH]c1-2.[Li+].[Li+].[Li+] [Pyrroloquinoline quinine lithium salt, trilithium derivative of pyrroloquinoline quinine]
effect on glycogen synthase kinase-3 activities (GSK-3) [1]: suppress the glycogen synthase kinase-3 activities

COc1cc2c(cc1OC)C(=O)C(CC1CCN(Cc3ccccc3)CC1)C2 (stereo not shown) [Aricept, reference compound]
Adjusted average distance of approaching to platform (APP/PS1 transgenic mice; 1.5 mg/kg daily for one month): 582.7 mm
Swimming path, I quadrant occupancy of platform (APP/PS1 transgenic mice; 1.5 mg/kg daily for one month): 2730.8 mm
first time of crossing platform (APP/PS1 transgenic mice; 1.5 mg/kg daily for one month): 30.7 s
time spent of IV quadrant (APP/PS1 transgenic mice; 1.5 mg/kg daily for one month): 21.7 s
time, I quadrant occupancy of platform (APP/PS1 transgenic mice; 1.5 mg/kg daily for one month): 9.3 s
times of crossing platform (APP/PS1 transgenic mice; 1.5 mg/kg daily for one month): 1.6

O=C([O-])c1cc(C(=O)[O-])c2c(n1)C(=O)C(=O)c1cc(C(=O)[O-])[nH]c1-2.[Li+].[Li+].[Li+] [trilithium derivative of pyrroloquinoline quinine, reference compound]
crystalline solid (assessment in words) ([2]; after the hygroscopicity comparison): not good
hygroscopicity variety under the normal moist environment for storage [2]: 5-25%
hygroscopicity ([2]; relative humidity (RH) of 65%): 25.3%
hygroscopicity ([2]; relative humidity (RH) of 80%): 32.6%

O=C([O-])c1cc(C(=O)[O-])c2c(n1)C(=O)C(=O)c1cc(C(=O)[O-])[nH]c1-2.[Li+].[Li+].[Li+] [PQQ-Li, trilithium derivative of pyrroloquinoline quinine]
Adjusted average distance of approaching to platform (APP/PS1 transgenic mice; [3]): 762.6 mm
Swimming path, I quadrant occupancy of platform (APP/PS1 transgenic mice; [3]): 961.6 mm
first time of crossing platform (APP/PS1 transgenic mice; [3]): 44.9 s
time spent of IV quadrant (APP/PS1 transgenic mice; [3]): 12.4 s
time, I quadrant occupancy of platform (APP/PS1 transgenic mice; [3]): 2.8 s
times of crossing platform (APP/PS1 transgenic mice; [3]): 0.8
Adjusted average distance of approaching to platform (APP/PS1 transgenic mice; 0.75 mg/kg daily for one month): 674.9 mm
Swimming path, I quadrant occupancy of platform (APP/PS1 transgenic mice; 0.75 mg/kg daily for one month): 2029.9 mm
first time of crossing platform (APP/PS1 transgenic mice; 0.75 mg/kg daily for one month): 31.3 s
time spent of IV quadrant (APP/PS1 transgenic mice; 0.75 mg/kg daily for one month): 15.8 s
time, I quadrant occupancy of platform (APP/PS1 transgenic mice; 0.75 mg/kg daily for one month): 6.4 s
times of crossing platform (APP/PS1 transgenic mice; 0.75 mg/kg daily for one month): 1.6
Adjusted average distance of approaching to platform (APP/PS1 transgenic mice; 1.5 mg/kg daily for one month): 605.6 mm
Swimming path, I quadrant occupancy of platform (APP/PS1 transgenic mice; 1.5 mg/kg daily for one month): 2653.3 mm
first time of crossing platform (APP/PS1 transgenic mice; 1.5 mg/kg daily for one month): 22.7 s
time spent of IV quadrant (APP/PS1 transgenic mice; 1.5 mg/kg daily for one month): 17.7 s
time, I quadrant occupancy of platform (APP/PS1 transgenic mice; 1.5 mg/kg daily for one month): 8.9 s
times of crossing platform (APP/PS1 transgenic mice; 1.5 mg/kg daily for one month): 2.2
Adjusted average distance of approaching to platform (APP/PS1 transgenic mice; 3 mg/kg daily for one month): 572.5 mm
Swimming path, I quadrant occupancy of platform (APP/PS1 transgenic mice; 3 mg/kg daily for one month): 2636.1 mm
first time of crossing platform (APP/PS1 transgenic mice; 3 mg/kg daily for one month): 21.8 s
time spent of IV quadrant (APP/PS1 transgenic mice; 3 mg/kg daily for one month): 19.5 s
time, I quadrant occupancy of platform (APP/PS1 transgenic mice; 3 mg/kg daily for one month): 9.2 s
times of crossing platform (APP/PS1 transgenic mice; 3 mg/kg daily for one month): 2.3
dose dependence of effects in Morris water maze test (APP/PS1 transgenic mice; APP/PS1 transgenic mice, 0.375-3 mg/kg): good dose-dependent effects
effect on spatial memory and cognitive impairment (APP/PS1 transgenic mice; APP/PS1 transgenic mice, Morris water maze test): significantly improved spatial memory and cognitive impairment
hydrate form in which the compound stably exists ([2]; dynamic vapor sorption analysis): nonahydrate
hygroscopicity variety under the normal moist environment for storage ([2]; listed as crystalline form B of pyrroloquinoline quinine lithium salt): 5-10%
hydrate form ([2]; relative humidity (RH) from 20% to 50%): monohydrate
hydrate form ([2]; relative humidity (RH) from 70% to 100%): dihydrate
hygroscopicity ([2]; relative humidity (RH) of 65%, listed as crystalline form B of pyrroloquinoline quinine lithium salt): 8.4%
hygroscopicity ([2]; relative humidity (RH) of 80%, listed as crystalline form B of pyrroloquinoline quinine lithium salt): 13.9%

From US9738639B2, “Pyrroloquinoline quinone lithium salt crystal and preparation method and application thereof” (SHANGHAI RI XIN BIOTECHNOLOGY CO., LTD., priority 2013, dated 2017)
